Measurements reported in US11701364B2, “Agonists of stimulator of interferon genes sting” (The Scripps Research Institute, priority 2018, dated 2023).
Read-outs that look alike come from different tables or passages of the source.

How the values were obtained:
[1] = tested on: human PBMCs; assay: Type I IFN protein expression in human PBMCs; type: cell-based; details: compared with 2′-3′ cGAMP
[2] = tested on: cGAS knockout cells; assay: Activity in wild-type and cGAS knockout cells (counter screen); type: cell-based
Text: We have established a robust platform for identifying non-nucleotide small molecule STING agonists. This has been established using a primary assay involving a human THP-1 cell line carrying an IRF-inducible reporter with 5 copies of the IFN signaling response element. Counter screens, involving alternative reporter constructs, rodent cell-based assays, as well as cGAS and STING knock-out cell lines, are used to eliminate luciferase artifacts and ensure human-rodent cross species reactivity, as well as pathway selectivity. Biochemical assays, involving cGAS enzymatic activity and STING protein binding assays, are used to identify the specific target of identified hits. […] Further evidence is provided by STING protein thermal shift data. A preliminary medicinal chemistry effort, involving the design, synthesis, and testing of ˜100 analogs within the series, has identified key features of the molecule that are required for activity and has led to the identification of derivatives with ˜10-fold improvements in cell-based potency (by for example modulating the substitution pattern on the aniline ring) and ˜50-fold improvement in plasma stability (by modulating the size of the substituent of the ester).

[3] = tested on: STING knockout cells; assay: ISRE-Luciferase reporter activity in STING knockout THP-1 cells (counter screen); type: cell-based, human
Protocol: Wild-type and STING KO THP-1 ISRE-Luciferase reporter cells were treated with increasing doses of 2′3′-cGAMP and reporter activity (luminescence) was assessed 48 h after treatment (A). Lack of STING protein expression was confirmed in STING KO THP-1 cells by western blot with gamma-tubulin used as a protein loading control (B). Wild-type and STING KO THP-1 reporter cells were treated with increasing doses of Compound 164 (Cmpd 164) and reporter activity and cell viability were assessed 24 h after treatment (C-D).
We have established a robust platform for identifying non-nucleotide small molecule STING agonists. This has been established using a primary assay involving a human THP-1 cell line carrying an IRF-inducible reporter with 5 copies of the IFN signaling response element. […]
THP-1 Lucia ISG cells were resuspended in low-serum growth media (2% FBS) at a density of 5×10^5 cells/ml and treated with test article or vehicle (DMSO). […] To evaluate expression of the luciferase reporter, 30 μl of Quanti-luc (Invivogen) detection reagent was added to each well and luminescence was read using an Envision plate reader (Perkin Elmer) set with an integration time of 0.1 seconds.

[4] = tested on: interferon-stimulated gene signature; assay: Interferon-stimulated gene signature expression (qPCR); type: cell-based, human; details: relevant cell types
Protocol: Wild-type and STING KO THP-1 cells were stimulated with poly(dA:dT), a known activator of both RIG-I and cGAS-dependent signaling cascades, and downstream target gene expression was assessed 48 h later by qPCR (A). Wild-type and STING KO THP-1 cells were stimulated with 2′3′-cGAMP or Cmpd 164 at the indicated doses and activation of type I interferon signaling was assessed by gene expression analysis of IFNB1 (B) and interferon stimulated genes, IFIT3 (C) and CXCL10 (D).
We have established a robust platform for identifying non-nucleotide small molecule STING agonists. This has been established using a primary assay involving a human THP-1 cell line carrying an IRF-inducible reporter with 5 copies of the IFN signaling response element. Counter screens, involving alternative reporter constructs, rodent cell-based assays, as well as cGAS and STING knock-out cell lines, are used to eliminate luciferase artifacts and ensure human-rodent cross species reactivity, as well as pathway selectivity. […]
THP-1 cells were resuspended in low-serum growth media at a density of 5×10^5 cells/ml and treated with test article or vehicle (DMSO). […] Gene expression was assessed using Taqman primers and probes listed in Table 4 with the Taqman Universal Mix II (cat. no. 4440038, ThermoFisher) following manufacturer's instructions. […]

[5] = biological target: T1, STING (Stimulator of Interferon Genes) (Homo sapiens, UniProt Q86WV6, G230A/H232R/R293Q/R71H); assay: ISG-LUC activation assay (ISRE-Luciferase assay in THP-1 Lucia ISG reporter cells); type: cell-based
T1 construct: host or cells: THP-1-Lucia ISG cells (human monocytic line)
T1 sequence (Q86WV6 whole entry R71H/G230A/H232R/R293Q): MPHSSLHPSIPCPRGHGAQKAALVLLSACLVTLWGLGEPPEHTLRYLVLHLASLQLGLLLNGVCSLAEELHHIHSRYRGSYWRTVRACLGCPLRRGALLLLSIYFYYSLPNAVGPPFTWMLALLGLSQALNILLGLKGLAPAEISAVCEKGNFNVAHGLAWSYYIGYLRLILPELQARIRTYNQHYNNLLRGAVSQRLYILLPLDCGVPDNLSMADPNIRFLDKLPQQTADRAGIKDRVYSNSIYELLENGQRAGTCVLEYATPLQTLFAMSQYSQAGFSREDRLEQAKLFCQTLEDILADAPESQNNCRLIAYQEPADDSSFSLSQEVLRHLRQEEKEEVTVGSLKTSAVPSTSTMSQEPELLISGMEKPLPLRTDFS
Text: This has been established using a primary assay involving a human THP-1 cell line carrying an IRF-inducible reporter with 5 copies of the IFN signaling response element. Counter screens, involving alternative reporter constructs, rodent cell-based assays, as well as cGAS and STING knock-out cell lines, are used to eliminate luciferase artifacts and ensure human-rodent cross species reactivity, as well as pathway selectivity. Biochemical assays, involving cGAS enzymatic activity and STING protein binding assays, are used to identify the specific target of identified hits.
THP-1 Lucia ISG cells were resuspended in low-serum growth media (2% FBS) at a density of 5×10^5 cells/ml and treated with test article or vehicle (DMSO). 50 μL of cells were seeded into each well of a 384-well white greiner plates and incubated for 24 hours. To evaluate expression of the luciferase reporter, 30 μl of Quanti-luc (Invivogen) detection reagent was added to each well and luminescence was read using an Envision plate reader (Perkin Elmer) set with an integration time of 0.1 seconds.

[6] = THP-1 Lucia ISG cells, 24 hours, luciferase reporter, read-out: ISG-LUC activation assay (EC50)

| Structure (SMILES) | EC50 [5, 6] [µM] | other results |
| --- | --- | --- |
| O=C(Nc1ccc(Br)cc1C(O)(C(F)(F)F)C(F)(F)F)c1ccc(-n2ccnc2)nn1 [Compound 164] | > 20 | type I IFN protein expression, efficacy [1]: comparable to that observed for 2′-3′ cGAMP; activity in wild-type and cGAS knockout cells [2]: observed activity; activity in STING knockout cells [3]: lack of activity; interferon-stimulated gene signature expression [4]: induces interferon-stimulated gene signature expression; EC50 ([5]; primary assay, human THP-1 IRF-inducible reporter, read-out: EC50): ~1 µM |
| O=c1oc(-c2ccc(-n3ccnc3)nn2)nc2c1COCC2 [Compound 168] | 11.3 | – |
| O=C(Nc1cc(F)ccc1C(=O)O)c1ccc(-n2ccnc2)nn1 [Compound 169] | 12.6 | – |
| COc1cc(C(=O)O)c(NC(=O)c2ccc(-n3ccnc3)nn2)cc1F [Compound 170] | 11 | – |
| CCCc1ccc(NC(=O)c2ccc(-n3ccnc3)nn2)c(C(=O)O)c1 [Compound 171] | > 20 | – |
| Cc1cc(C(=O)O)c(NC(=O)c2ccc(-n3ccnc3)nn2)cc1F [Compound 172] | 1.01 | – |
| O=C(Nc1ccc(F)c(F)c1C(=O)O)c1ccc(-n2ccnc2)nn1 [Compound 173] | > 20 | – |
| O=C(Nc1cc(C2CC2)c(F)cc1C(=O)O)c1ccc(-n2ccnc2)nn1 [Compound 174] | 10 | – |
| COC(=O)c1cc(F)cc(C)c1NC(=O)c1ccc(-n2ccnc2)nn1 [Compound 175] | ~2.81 | – |
| COC(=O)c1c(F)c(F)c(F)c(F)c1NC(=O)c1ccc(-n2ccnc2)nn1 [Compound 176] | ~2.48 | – |
| O=C(Nc1cc(F)c(Br)nc1C(=O)O)c1ccc(-n2ccnc2)nn1 [Compound 177] | > 20 | – |
